US8653087B2, “Pyrido [5, 4-D] pyrimidines as cell proliferation inhibitors” (Boehringer Ingelheim International GmbH, priority 2008, dated 2014)

Biological target: B-Raf (V600E)-kinase (Homo sapiens (Human), UniProt P15056, V600E)
Test: Kinase test B-RAF (V600E)
Type: biochemical
Conditions: B-RAF (V600E) kinase test, 250 μM ATP
How it was run: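 Read-out is DELFIA europium TRF of phospho-MEK (Ser217/221) on biotinylated MEK1 bound to streptavidin plates, IC50 from dose-response. Reaction ran 60 min at RT with 250 μM ATP, after a 24 h RT preincubation of compound with B-Raf (V600E) kinase, 5% DMSO final.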

B-Raf (V600E)-kinase, sequence (P15056 whole entry V600E): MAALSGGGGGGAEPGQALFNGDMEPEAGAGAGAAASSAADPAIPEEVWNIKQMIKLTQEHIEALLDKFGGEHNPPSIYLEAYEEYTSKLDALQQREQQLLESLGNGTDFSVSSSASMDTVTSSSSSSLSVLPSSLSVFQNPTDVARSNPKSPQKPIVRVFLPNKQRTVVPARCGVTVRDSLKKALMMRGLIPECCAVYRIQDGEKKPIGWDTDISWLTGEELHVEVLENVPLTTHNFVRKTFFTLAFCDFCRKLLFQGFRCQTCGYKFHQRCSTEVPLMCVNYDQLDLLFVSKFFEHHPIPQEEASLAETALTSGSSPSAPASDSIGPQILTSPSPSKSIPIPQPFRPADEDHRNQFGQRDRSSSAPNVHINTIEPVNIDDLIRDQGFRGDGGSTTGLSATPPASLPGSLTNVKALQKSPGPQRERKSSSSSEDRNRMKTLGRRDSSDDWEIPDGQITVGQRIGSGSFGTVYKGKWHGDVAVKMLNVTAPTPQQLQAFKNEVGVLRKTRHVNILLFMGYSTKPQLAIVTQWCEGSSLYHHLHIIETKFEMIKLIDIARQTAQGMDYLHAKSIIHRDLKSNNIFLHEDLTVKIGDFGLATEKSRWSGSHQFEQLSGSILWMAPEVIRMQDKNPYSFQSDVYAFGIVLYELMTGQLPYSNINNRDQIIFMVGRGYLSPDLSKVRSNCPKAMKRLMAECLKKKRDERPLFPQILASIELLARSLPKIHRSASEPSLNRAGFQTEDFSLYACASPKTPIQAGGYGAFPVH

Compound `COCCN1CCN(c2ncc3ncnc(Nc4cc(C(=O)Nc5ccc(OC)c(C(F)(F)F)c5)ccc4F)c3n2)CC1` [III-402] has an IC50 of 2 nM.
Work on `COc1ccc(NC(=O)c2ccc(F)c(Nc3ncnc4cnc(N5CCN(C(C)C)CC5)nc34)c2)cc1C(F)(F)F` [III-403] yielded an IC50 of 3 nM.
Work on `COc1ccc(NC(=O)c2ccc(F)c(Nc3ncnc4cnc(N5CCN(CC6CC6)CC5)nc34)c2)cc1C(F)(F)F` [III-404] yielded an IC50 of 6 nM.
With `CCN1CCN(c2ncc3ncnc(Nc4cc(C(=O)Nc5ccc(OC)c(C(F)(F)F)c5)ccc4F)c3n2)CC1` [III-405] the IC50 was 5 nM.
With `Cc1ccc(C(=O)Nc2cc(N(C)CCN(C)C)cc(C(F)(F)F)c2)cc1Nc1ncnc2cnc(N(C)CC3CCCCO3)nc12` (centres unmarked) [III-407] the IC50 was 10 nM.
`CCN1CCN(c2cc(NC(=O)c3ccc(C)c(Nc4ncnc5cnc(N(C)CC6CCCCO6)nc45)c3)cc(C(F)(F)F)c2)CC1` (centres unmarked) [III-408] gave an IC50 of 25 nM.
Work on `COc1ccc(NC(=O)c2ccc(C)c(Nc3ncnc4cnc(N(C)CC5CCCCO5)nc34)c2)cc1C(F)(F)F` (centres unmarked) [III-409] yielded an IC50 of 9 nM.
`Cc1ccc(C(=O)Nc2cccc(OC(F)(F)F)c2)cc1Nc1ncnc2cnc(N3CCOCC3)nc12` [III-410] gave an IC50 of 1 nM.
`COc1ccc(NC(=O)c2ccc(C)c(Nc3ncnc4cnc(N5CC[C@H](F)C5)nc34)c2)cc1C(F)(F)F` [III-411] was tested, and the IC50 was 3 nM.
`Cc1ccc(C(=O)Nc2cc(C(C)(C)C)on2)cc1Nc1ncnc2cnc(N3CC[C@H](F)C3)nc12` [III-412] was tested, and the IC50 was 5 nM.
With `COc1ccc(C(F)(F)F)cc1NC(=O)c1ccc(C)c(Nc2ncnc3cnc(N4CCN(CC5CCN(C)CC5)CC4)nc23)c1` [III-413] the IC50 was less than 1 nM.
Compound `Cc1ccc(C(=O)Nc2cc(C(C)(C)C)nn2C)cc1Nc1ncnc2cnc(N3CCN(CC4CCN(C)CC4)CC3)nc12` [III-414] has an IC50 of 7 nM.
Compound `COc1ccc(C(C)(C)C)cc1NC(=O)c1ccc(C)c(Nc2ncnc3cnc(N4CCN(CC5CCN(C)CC5)CC4)nc23)c1` [III-415] has an IC50 of 3 nM.
`Cc1ccc(C(=O)Nc2cccc(C(C)(C)C)c2)cc1Nc1ncnc2cnc(N3CCN(CC4CCN(C)CC4)CC3)nc12` [III-416] gave an IC50 of 1 nM.
`Cc1ccc(C(=O)Nc2cccc(C(F)(F)F)c2)cc1Nc1ncnc2cnc(N3CCN(CC4CCN(C)CC4)CC3)nc12` [III-417] showed an IC50 of less than 1 nM.
`Cc1ccc(C(=O)Nc2cc(C(C)(C)C)n[nH]2)cc1Nc1ncnc2cnc(N3CCN(CC4CCN(C)CC4)CC3)nc12` [III-418] was tested, and the IC50 was 2 nM.
`COc1ccc(NC(=O)c2ccc(C)c(Nc3ncnc4cnc(N5CCN(CC6CCN(C)CC6)CC5)nc34)c2)cc1C(F)(F)F` [III-419] was tested, and the IC50 was 1 nM.
`Cc1ccc(C(=O)Nc2cc(C(C)(C)C)on2)cc1Nc1ncnc2cnc(N3CCN(CC4CCN(C)CC4)CC3)nc12` [III-420] was tested, and the IC50 was 1 nM.
For `COCCN1CCN(c2ncc3ncnc(Nc4cc(C(=O)Nc5cc(C(C)(C)C)nn5C)ccc4C)c3n2)CC1` [III-421], the IC50 was 12 nM.
With `COCCN1CCN(c2ncc3ncnc(Nc4cc(C(=O)Nc5cc(C(C)(C)C)ccc5OC)ccc4C)c3n2)CC1` [III-422] the IC50 was 5 nM.
`COCCN1CCN(c2ncc3ncnc(Nc4cc(C(=O)Nc5cccc(C(F)(F)F)c5)ccc4C)c3n2)CC1` [III-423] gave an IC50 of less than 1 nM.
For `CCN1CCN(c2cc(NC(=O)c3ccc(C)c(Nc4ncnc5cnc(N6CCN(CCOC)CC6)nc45)c3)cc(C(F)(F)F)c2)CC1` [III-424], the IC50 was 6 nM.
`COCCN1CCN(c2ncc3ncnc(Nc4cc(C(=O)Nc5cc(C(C)(C)C)n[nH]5)ccc4C)c3n2)CC1` [III-425] showed an IC50 of 7 nM.
In the case of `COCCN1CCN(c2ncc3ncnc(Nc4cc(C(=O)Nc5cc(C(F)(F)F)ccn5)ccc4C)c3n2)CC1` [III-426], the IC50 is reported as less than 1 nM.
`COCCN1CCN(c2ncc3ncnc(Nc4cc(C(=O)Nc5ccc(OC)c(C(F)(F)F)c5)ccc4C)c3n2)CC1` [III-427] was tested, and the IC50 was 2 nM.
Work on `Cc1ccc(C(=O)Nc2cccc(C(C)(C)C)c2)cc1Nc1ncnc2cnc(NCc3ccccc3)nc12` [III-428] yielded an IC50 of less than 1 nM.
`Cc1ccc(C(=O)Nc2cc(C(C)(C)C)nn2C)cc1Nc1ncnc2cnc(NCc3ccccc3)nc12` [III-429] was tested, and the IC50 was 2 nM.
For `Cc1ccc(C(=O)Nc2cccc(C(C)(C)C#N)c2)cc1Nc1ncnc2cnc(NCc3ccccc3)nc12` [III-430], the IC50 was 7 nM.
With `COc1ccc(NC(=O)c2ccc(C)c(Nc3ncnc4cnc(N5C[C@H]6C[C@@H]5CN6C)nc34)c2)cc1C(F)(F)F` [III-431] the IC50 was 3 nM.
`COc1ccc(NC(=O)c2ccc(C)c(Nc3ncnc4cnc(N5CCN(CC6CCOC6)CC5)nc34)c2)cc1C(F)(F)F` (centres unmarked) [III-432] showed an IC50 of 6 nM.
`COc1ccc(NC(=O)c2ccc(C)c(Nc3ncnc4cnc(N5CCN(C6CC6)CC5)nc34)c2)cc1C(F)(F)F` [III-433] was tested, and the IC50 was 7 nM.
With `COc1ccc(NC(=O)c2ccc(C)c(Nc3ncnc4cnc(N5CCC(N(C)C)CC5)nc34)c2)cc1C(F)(F)F` [III-435] the IC50 was 1 nM.
`COc1ccc(NC(=O)c2ccc(C)c(Nc3ncnc4cnc(N5C[C@@H](C)N[C@@H](C)C5)nc34)c2)cc1C(F)(F)F` [III-436] gave an IC50 of 2 nM.
Compound `COc1ccc(NC(=O)c2ccc(C)c(Nc3ncnc4cnc(N5CCN(C(C)C)CC5)nc34)c2)cc1C(F)(F)F` [III-437] has an IC50 of 2 nM.
`Cc1ccc(C(=O)Nc2cc(N(C)CCN(C)C)cc(C(F)(F)F)c2)cc1Nc1ncnc2cnc(N3CC[C@H](F)C3)nc12` [III-438] was tested, and the IC50 was 6 nM.
Compound `CCN1CCN(c2cc(NC(=O)c3ccc(C)c(Nc4ncnc5cnc(N6CC[C@H](F)C6)nc45)c3)cc(C(F)(F)F)c2)CC1` [III-439] has an IC50 of 4 nM.
`Cc1ccc(C(=O)Nc2cc(N(C)CCN(C)C)cc(C(F)(F)F)c2)cc1Nc1ncnc2cnc(N3CCCC3)nc12` [III-440] was tested, and the IC50 was 272 nM.
For `CCN1CCN(c2cc(NC(=O)c3ccc(C)c(Nc4ncnc5cnc(N6CCOCC6)nc45)c3)cc(C(F)(F)F)c2)CC1` [III-441], the IC50 was 2 nM.
For `Cc1ccc(C(=O)Nc2cc(N(C)CCN(C)C)cc(C(F)(F)F)c2)cc1Nc1ncnc2cnc(N3CCOCC3)nc12` [III-442], the IC50 was 1 nM.
In the case of `COc1ccc(NC(=O)c2ccc(C)c(Nc3ncnc4cnc(N5CCCN(C)CC5)nc34)c2)cc1C(F)(F)F` [III-443], the IC50 is reported as 1 nM.
`COc1ccc(NC(=O)c2ccc(C)c(Nc3ncnc4cnc(N5CCN(CC(C)C)CC5)nc34)c2)cc1C(F)(F)F` [III-444] gave an IC50 of 4 nM.
With `COc1ccc(NC(=O)c2ccc(C)c(Nc3ncnc4cnc(N5CCCC5)nc34)c2)cc1C(F)(F)F` [III-445] the IC50 was 2 nM.
With `Cc1ccc(C(=O)Nc2cc(C(C)(C)C)n[nH]2)cc1Nc1ncnc2cnc(N3CCCN(C)CC3)nc12` [III-446] the IC50 was 6 nM.
`Cc1ccc(C(=O)Nc2cc(C(C)(C)C)n[nH]2)cc1Nc1ncnc2cnc(N3CCN(CC(C)C)CC3)nc12` [III-447] showed an IC50 of 13 nM.
For `Cc1ccc(C(=O)Nc2cc(C(C)(C)C)n[nH]2)cc1Nc1ncnc2cnc(N3CCN(C)CC3)nc12` [III-448], the IC50 was 8 nM.
`Cc1ccc(C(=O)Nc2cc(C(F)(F)F)ccn2)cc1Nc1ncnc2cnc(N3CCN(CC(C)C)CC3)nc12` [III-449] was tested, and the IC50 was 3 nM.
For `Cc1cn(-c2cc(NC(=O)c3ccc(C)c(Nc4ncnc5cnc(N6CCC(F)(F)C6)nc45)c3)cc(C(F)(F)F)c2)cn1` [III-450], the IC50 was 3 nM.
For `Cc1cn(-c2cc(NC(=O)c3ccc(C)c(Nc4ncnc5cnc(N6CC[C@H](F)C6)nc45)c3)cc(C(F)(F)F)c2)cn1` [III-454], the IC50 was 4 nM.
With `Cc1ccc(C(=O)Nc2cc(N3CCN(CC(C)C)CC3)cc(C(F)(F)F)c2)cc1Nc1ncnc2cnc(N3CC[C@H](F)C3)nc12` [III-455] the IC50 was 8 nM.
In the case of `Cc1ccc(C(=O)Nc2cc(N3CCN(C(C)C)CC3)cc(C(F)(F)F)c2)cc1Nc1ncnc2cnc(N3CC[C@H](F)C3)nc12` [III-456], the IC50 is reported as 3 nM.
In the case of `Cc1ccc(C(=O)Nc2cc(N3CCN(C)CC3)cc(C(F)(F)F)c2)cc1Nc1ncnc2cnc(N3CC[C@H](F)C3)nc12` [III-457], the IC50 is reported as 4 nM.
With `Cc1ccc(C(=O)Nc2cc(N3CCCN(C)CC3)cc(C(F)(F)F)c2)cc1Nc1ncnc2cnc(N3CC[C@H](F)C3)nc12` [III-458] the IC50 was 1 nM.
Compound `Cc1ccc(C(=O)Nc2cc(CN3CCCC3)cc(C(F)(F)F)c2)cc1Nc1ncnc2cnc(N3CC[C@H](F)C3)nc12` [III-459] has an IC50 of 2 nM.
In the case of `Cc1ccc(C(=O)Nc2cc(N3CCN(CC(C)C)CC3)cc(C(F)(F)F)c2)cc1Nc1ncnc2cnc(N3CCOCC3)nc12` [III-460], the IC50 is reported as 4 nM.
Compound `Cc1ccc(C(=O)Nc2cc(N3CCN(C(C)C)CC3)cc(C(F)(F)F)c2)cc1Nc1ncnc2cnc(N3CCOCC3)nc12` [III-461] has an IC50 of 2 nM.
`Cc1ccc(C(=O)Nc2cc(N3CCN(C)CC3)cc(C(F)(F)F)c2)cc1Nc1ncnc2cnc(N3CCOCC3)nc12` [III-462] gave an IC50 of 1 nM.
With `Cc1ccc(C(=O)Nc2cc(N3CCCN(C)CC3)cc(C(F)(F)F)c2)cc1Nc1ncnc2cnc(N3CCOCC3)nc12` [III-463] the IC50 was 2 nM.
For `COCCN(C)c1ncc2ncnc(Nc3cc(C(=O)Nc4cc(C(C)(C)C)nn4C)ccc3C)c2n1` [III-465], the IC50 was 2 nM.
With `COCCN(C)c1ncc2ncnc(Nc3cc(C(=O)Nc4cccc(C(F)(F)F)c4)ccc3C)c2n1` [III-467] the IC50 was 2 nM.
Compound `COCCN(C)c1ncc2ncnc(Nc3cc(C(=O)Nc4cccc(C(C)(C)C)c4)ccc3C)c2n1` [III-468] has an IC50 of less than 1 nM.
With `COCCN(C)c1ncc2ncnc(Nc3cc(C(=O)Nc4cc(N(C)CCN(C)C)cc(C(F)(F)F)c4)ccc3C)c2n1` [III-469] the IC50 was less than 1 nM.
`CCN1CCN(c2cc(NC(=O)c3ccc(C)c(Nc4ncnc5cnc(N(C)CCOC)nc45)c3)cc(C(F)(F)F)c2)CC1` [III-470] showed an IC50 of 2 nM.
For `COCCN(C)c1ncc2ncnc(Nc3cc(C(=O)Nc4cc(C(C)(C)C)n[nH]4)ccc3C)c2n1` [III-471], the IC50 was 4 nM.
For `COCCN(C)c1ncc2ncnc(Nc3cc(C(=O)Nc4cc(C(F)(F)F)ccn4)ccc3C)c2n1` [III-472], the IC50 was 2 nM.
In the case of `COCCN(C)c1ncc2ncnc(Nc3cc(C(=O)Nc4ccc(OC)c(C(F)(F)F)c4)ccc3C)c2n1` [III-473], the IC50 is reported as 1 nM.
For `COCCN(C)c1ncc2ncnc(Nc3cc(C(=O)Nc4cc(C(C)(C)C)on4)ccc3C)c2n1` [III-474], the IC50 was 1 nM.
`Cc1ccc(C(=O)Nc2cc(C(C)(C)C)nn2C)cc1Nc1ncnc2cnc(N(C)CC3CCCCO3)nc12` (centres unmarked) [III-476] was tested, and the IC50 was 17 nM.
For `Cc1ccc(C(=O)Nc2cc(C(C)(C)C)on2)cc1Nc1ncnc2cnc(N(C)CC3CCCCO3)nc12` (centres unmarked) [III-480], the IC50 was 4 nM.
